{"source": "paper PMC4823954", "about": "“From fighting depression to conquering tumors: a novel tricyclic thiazepine compound as a tubulin polymerization inhibitor” (Cell Death & Disease, 2016)", "test_in_all_cases": "KINOMEscan", "assay_type_in_all_cases": "binding", "conditions_in_all_cases": "read-out: % Ctrl", "key": {"[1]": {"target": "T1, ADCK3 (Homo sapiens, UniProt Q8NI60)", "T1 construct": "purchased DiscoveRx KINOMEscan", "T1 sequence (Q8NI60 163-647)": "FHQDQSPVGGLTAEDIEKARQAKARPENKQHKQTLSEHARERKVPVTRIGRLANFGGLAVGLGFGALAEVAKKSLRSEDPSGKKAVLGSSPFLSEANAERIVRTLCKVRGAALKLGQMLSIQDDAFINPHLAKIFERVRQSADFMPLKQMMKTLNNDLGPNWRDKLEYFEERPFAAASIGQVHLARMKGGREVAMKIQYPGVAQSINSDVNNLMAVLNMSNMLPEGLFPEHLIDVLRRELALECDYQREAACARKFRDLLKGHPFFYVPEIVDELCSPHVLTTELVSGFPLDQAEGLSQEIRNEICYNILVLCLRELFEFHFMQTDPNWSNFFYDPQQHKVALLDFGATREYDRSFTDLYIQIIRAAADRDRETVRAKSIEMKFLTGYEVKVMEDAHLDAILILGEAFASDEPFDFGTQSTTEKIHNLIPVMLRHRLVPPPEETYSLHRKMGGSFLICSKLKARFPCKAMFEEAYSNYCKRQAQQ", "how_it_was_run": "(§1)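 Competition binding panel of 442 non-mutant kinases: test compound at 5 and 10 μM competed with an active-site-directed ligand for 1 h with shaking. Bound kinase was eluted with 0.5 μM ligand and quantified by qPCR; %Ctrl = (compound − positive control)/(DMSO − positive control) × 100, lower meaning tighter binding.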"}, "[2]": {"target": "T2, AKT2 (Homo sapiens, UniProt P31751)", "T2 construct": "purchased DiscoveRx KINOMEscan", "how_it_was_run": "as §1"}, "[3]": {"target": "T3, CLK1 (Homo sapiens, UniProt P49759)", "T3 construct": "purchased DiscoveRx KINOMEscan", "how_it_was_run": "as §1"}, "[4]": {"target": "T4, CSNK1G2 (Homo sapiens, UniProt P78368)", "T4 construct": "purchased DiscoveRx KINOMEscan", "how_it_was_run": "as §1"}, "[5]": {"target": "T5, DRAK2 (Homo sapiens, UniProt O94768)", "T5 construct": "purchased DiscoveRx KINOMEscan", "how_it_was_run": "as §1"}, "[6]": {"target": "T6, GSK3B (Homo sapiens, UniProt P49841)", "T6 construct": "purchased DiscoveRx KINOMEscan", "how_it_was_run": "as §1"}, "[7]": {"target": "T7, IGF1R (Homo sapiens, UniProt P08069)", "T7 construct": "purchased DiscoveRx KINOMEscan", "how_it_was_run": "as §1"}, "[8]": {"target": "T8, IKK-epsilon (Homo sapiens, UniProt Q14164)", "T8 construct": "purchased DiscoveRx KINOMEscan", "how_it_was_run": "as §1"}, "[9]": {"target": "T9, INSR (Homo sapiens, UniProt P06213)", "T9 construct": "purchased DiscoveRx KINOMEscan", "how_it_was_run": "as §1"}, "[10]": {"target": "T10, IRAK4 (Homo sapiens, UniProt Q9NWZ3)", "T10 construct": "purchased DiscoveRx KINOMEscan", "how_it_was_run": "as §1"}, "[11]": {"target": "T11, JAK1(JH1domain-catalytic) (Homo sapiens, UniProt P23458)", "T11 construct": "JAK1(JH1domain-catalytic); purchased DiscoveRx KINOMEscan", "T11 sequence (P23458 854-1154 limits assumed)": "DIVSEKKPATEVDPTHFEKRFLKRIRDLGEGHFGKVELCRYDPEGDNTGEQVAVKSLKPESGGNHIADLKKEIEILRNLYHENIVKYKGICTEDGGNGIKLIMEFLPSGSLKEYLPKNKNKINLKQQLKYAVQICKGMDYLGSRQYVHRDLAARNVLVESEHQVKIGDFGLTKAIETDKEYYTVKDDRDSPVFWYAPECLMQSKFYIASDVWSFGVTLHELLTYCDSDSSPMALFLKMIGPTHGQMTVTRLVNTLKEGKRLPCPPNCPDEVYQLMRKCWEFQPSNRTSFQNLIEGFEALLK", "how_it_was_run": "as §1"}, "[12]": {"target": "T12, JNK1 (Homo sapiens, UniProt P45983)", "T12 construct": "purchased DiscoveRx KINOMEscan", "how_it_was_run": "as §1"}, "[13]": {"target": "T13, MAP3K1 (Homo sapiens, UniProt Q13233)", "T13 construct": "purchased DiscoveRx KINOMEscan", "how_it_was_run": "as §1"}, "[14]": {"target": "T14, MARK4 (Homo sapiens, UniProt Q96L34)", "T14 construct": "purchased DiscoveRx KINOMEscan", "how_it_was_run": "as §1"}, "[15]": {"target": "T15, MELK (Homo sapiens, UniProt Q14680)", "T15 construct": "purchased DiscoveRx KINOMEscan", "how_it_was_run": "as §1"}, "[16]": {"target": "T16, MLK1 (Homo sapiens, UniProt P80192)", "T16 construct": "purchased DiscoveRx KINOMEscan", "how_it_was_run": "as §1"}, "[17]": {"target": "T17, NEK1 (Homo sapiens, UniProt Q96PY6)", "T17 construct": "purchased DiscoveRx KINOMEscan", "how_it_was_run": "as §1"}, "[18]": {"target": "T18, NEK6 (Homo sapiens, UniProt Q9HC98)", "T18 construct": "purchased DiscoveRx KINOMEscan", "how_it_was_run": "as §1"}, "[19]": {"target": "T19, PIP5K2B (Homo sapiens, UniProt P78356)", "T19 construct": "purchased DiscoveRx KINOMEscan", "how_it_was_run": "as §1"}, "[20]": {"target": "T20, PKN1 (Homo sapiens, UniProt Q16512)", "T20 construct": "purchased DiscoveRx KINOMEscan", "how_it_was_run": "as §1"}, "[21]": {"target": "T21, PLK3 (Homo sapiens, UniProt Q9H4B4)", "T21 construct": "purchased DiscoveRx KINOMEscan", "how_it_was_run": "as §1"}, "[22]": {"target": "T22, PRKCE (Homo sapiens, UniProt Q02156)", "T22 construct": "purchased DiscoveRx KINOMEscan", "how_it_was_run": "as §1"}, "[23]": {"target": "T23, RET(V804M) (Homo sapiens, UniProt P07949, V804M)", "T23 construct": "purchased DiscoveRx KINOMEscan"}, "[24]": {"target": "T24, RSK1(Kin.Dom.2-C-terminal) (Homo sapiens, UniProt Q15418)", "T24 construct": "RSK1(Kin.Dom.2-C-terminal); purchased DiscoveRx KINOMEscan", "T24 sequence (Q15418 392-735 limits assumed)": "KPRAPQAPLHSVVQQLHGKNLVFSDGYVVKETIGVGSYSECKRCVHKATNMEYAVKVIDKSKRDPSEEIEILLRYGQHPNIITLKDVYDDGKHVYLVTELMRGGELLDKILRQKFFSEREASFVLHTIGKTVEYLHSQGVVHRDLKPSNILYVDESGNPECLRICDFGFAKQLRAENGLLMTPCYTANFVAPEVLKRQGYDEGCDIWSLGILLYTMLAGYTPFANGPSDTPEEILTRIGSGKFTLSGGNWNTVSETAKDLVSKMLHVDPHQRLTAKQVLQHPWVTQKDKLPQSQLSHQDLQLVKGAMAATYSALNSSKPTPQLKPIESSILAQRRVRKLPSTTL", "how_it_was_run": "as §1"}, "[25]": {"target": "T25, S6K1 (Homo sapiens, UniProt P23443)", "T25 construct": "purchased DiscoveRx KINOMEscan", "how_it_was_run": "as §1"}, "[26]": {"target": "T26, SIK (Homo sapiens, UniProt P57059)", "T26 construct": "purchased DiscoveRx KINOMEscan", "T26 sequence (P57059 whole entry)": "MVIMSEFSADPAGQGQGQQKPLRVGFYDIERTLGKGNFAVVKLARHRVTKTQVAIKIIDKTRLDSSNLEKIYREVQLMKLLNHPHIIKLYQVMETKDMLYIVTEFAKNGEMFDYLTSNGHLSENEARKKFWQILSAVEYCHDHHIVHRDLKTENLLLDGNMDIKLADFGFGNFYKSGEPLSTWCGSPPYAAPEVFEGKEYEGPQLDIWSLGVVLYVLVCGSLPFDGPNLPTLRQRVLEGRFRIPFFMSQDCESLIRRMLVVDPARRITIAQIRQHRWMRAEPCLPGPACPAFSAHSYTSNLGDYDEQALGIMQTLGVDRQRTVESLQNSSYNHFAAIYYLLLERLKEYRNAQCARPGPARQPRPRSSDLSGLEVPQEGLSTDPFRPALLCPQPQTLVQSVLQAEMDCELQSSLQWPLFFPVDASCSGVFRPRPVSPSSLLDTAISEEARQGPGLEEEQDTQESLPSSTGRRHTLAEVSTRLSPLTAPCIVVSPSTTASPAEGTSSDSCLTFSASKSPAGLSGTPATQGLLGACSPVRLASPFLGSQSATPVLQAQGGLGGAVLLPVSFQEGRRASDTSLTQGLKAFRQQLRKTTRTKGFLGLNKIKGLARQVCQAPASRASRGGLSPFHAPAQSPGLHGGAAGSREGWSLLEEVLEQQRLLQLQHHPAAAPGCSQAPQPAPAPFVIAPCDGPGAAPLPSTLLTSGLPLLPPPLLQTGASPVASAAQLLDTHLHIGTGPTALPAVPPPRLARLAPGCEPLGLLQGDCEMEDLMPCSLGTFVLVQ", "how_it_was_run": "as §1"}, "[27]": {"target": "T27, SNARK (Homo sapiens, UniProt Q9H093)", "T27 construct": "purchased DiscoveRx KINOMEscan", "T27 sequence (Q9H093 whole entry)": "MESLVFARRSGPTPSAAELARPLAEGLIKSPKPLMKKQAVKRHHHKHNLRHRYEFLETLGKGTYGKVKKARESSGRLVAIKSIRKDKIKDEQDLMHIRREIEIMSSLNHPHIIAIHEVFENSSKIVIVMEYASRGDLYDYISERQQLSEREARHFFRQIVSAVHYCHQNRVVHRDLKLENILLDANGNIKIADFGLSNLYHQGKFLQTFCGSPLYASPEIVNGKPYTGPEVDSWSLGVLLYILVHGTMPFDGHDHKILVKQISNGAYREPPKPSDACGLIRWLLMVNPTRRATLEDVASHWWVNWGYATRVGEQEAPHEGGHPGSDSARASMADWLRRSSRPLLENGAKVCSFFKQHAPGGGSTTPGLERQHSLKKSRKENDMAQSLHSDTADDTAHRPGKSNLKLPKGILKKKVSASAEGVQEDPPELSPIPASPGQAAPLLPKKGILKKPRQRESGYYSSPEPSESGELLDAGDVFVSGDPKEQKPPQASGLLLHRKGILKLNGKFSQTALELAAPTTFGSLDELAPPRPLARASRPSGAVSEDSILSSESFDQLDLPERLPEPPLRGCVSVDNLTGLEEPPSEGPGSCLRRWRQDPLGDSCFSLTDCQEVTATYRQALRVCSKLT", "how_it_was_run": "as §1"}, "[28]": {"target": "T28, SRPK2 (Homo sapiens, UniProt P78362)", "T28 construct": "purchased DiscoveRx KINOMEscan", "T28 sequence (P78362 whole entry)": "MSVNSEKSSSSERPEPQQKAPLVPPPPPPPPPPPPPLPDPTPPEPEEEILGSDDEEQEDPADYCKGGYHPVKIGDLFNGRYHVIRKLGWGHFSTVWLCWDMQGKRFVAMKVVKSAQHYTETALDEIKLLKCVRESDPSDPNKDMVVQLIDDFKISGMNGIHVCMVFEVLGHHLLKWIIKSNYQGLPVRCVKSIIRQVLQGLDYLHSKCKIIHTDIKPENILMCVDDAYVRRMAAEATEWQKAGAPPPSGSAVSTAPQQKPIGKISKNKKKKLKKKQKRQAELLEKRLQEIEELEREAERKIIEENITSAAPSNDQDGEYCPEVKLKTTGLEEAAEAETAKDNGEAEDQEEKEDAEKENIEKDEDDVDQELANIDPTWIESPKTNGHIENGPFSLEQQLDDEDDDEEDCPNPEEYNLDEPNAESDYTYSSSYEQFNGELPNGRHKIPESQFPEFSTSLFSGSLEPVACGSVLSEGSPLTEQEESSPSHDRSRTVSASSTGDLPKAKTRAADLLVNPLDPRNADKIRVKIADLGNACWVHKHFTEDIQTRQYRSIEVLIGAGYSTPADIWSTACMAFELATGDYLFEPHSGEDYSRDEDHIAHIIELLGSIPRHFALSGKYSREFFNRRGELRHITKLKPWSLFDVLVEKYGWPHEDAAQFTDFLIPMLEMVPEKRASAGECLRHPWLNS", "how_it_was_run": "as §1"}, "[29]": {"target": "T29, TTK (Homo sapiens, UniProt P33981)", "T29 construct": "purchased DiscoveRx KINOMEscan", "T29 sequence (P33981 whole entry)": "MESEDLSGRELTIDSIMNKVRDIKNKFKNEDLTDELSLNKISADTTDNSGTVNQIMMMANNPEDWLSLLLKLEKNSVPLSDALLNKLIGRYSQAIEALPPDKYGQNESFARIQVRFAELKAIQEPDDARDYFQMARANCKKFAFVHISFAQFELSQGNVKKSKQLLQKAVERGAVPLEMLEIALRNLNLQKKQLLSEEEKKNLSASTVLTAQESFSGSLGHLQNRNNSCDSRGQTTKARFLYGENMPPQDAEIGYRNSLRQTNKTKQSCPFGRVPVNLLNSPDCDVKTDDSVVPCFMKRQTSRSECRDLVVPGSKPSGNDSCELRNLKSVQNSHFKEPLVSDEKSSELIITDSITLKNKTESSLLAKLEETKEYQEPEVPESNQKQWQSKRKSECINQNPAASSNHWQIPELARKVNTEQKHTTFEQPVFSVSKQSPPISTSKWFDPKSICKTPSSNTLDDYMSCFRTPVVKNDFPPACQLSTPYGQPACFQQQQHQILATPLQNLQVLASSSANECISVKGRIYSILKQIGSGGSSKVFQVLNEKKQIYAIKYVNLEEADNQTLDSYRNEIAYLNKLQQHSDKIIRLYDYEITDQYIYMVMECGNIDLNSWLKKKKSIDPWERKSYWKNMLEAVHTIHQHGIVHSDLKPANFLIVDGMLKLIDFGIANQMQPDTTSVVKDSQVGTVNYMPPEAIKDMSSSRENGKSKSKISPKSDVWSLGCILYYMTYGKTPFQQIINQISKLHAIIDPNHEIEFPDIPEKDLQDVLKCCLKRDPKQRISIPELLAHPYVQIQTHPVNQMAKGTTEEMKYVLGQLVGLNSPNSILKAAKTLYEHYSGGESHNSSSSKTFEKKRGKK", "how_it_was_run": "as §1"}, "[30]": {"target": "T30, ZAK (Homo sapiens, UniProt Q9NYL2)", "T30 construct": "purchased DiscoveRx KINOMEscan", "T30 sequence (Q9NYL2 whole entry)": "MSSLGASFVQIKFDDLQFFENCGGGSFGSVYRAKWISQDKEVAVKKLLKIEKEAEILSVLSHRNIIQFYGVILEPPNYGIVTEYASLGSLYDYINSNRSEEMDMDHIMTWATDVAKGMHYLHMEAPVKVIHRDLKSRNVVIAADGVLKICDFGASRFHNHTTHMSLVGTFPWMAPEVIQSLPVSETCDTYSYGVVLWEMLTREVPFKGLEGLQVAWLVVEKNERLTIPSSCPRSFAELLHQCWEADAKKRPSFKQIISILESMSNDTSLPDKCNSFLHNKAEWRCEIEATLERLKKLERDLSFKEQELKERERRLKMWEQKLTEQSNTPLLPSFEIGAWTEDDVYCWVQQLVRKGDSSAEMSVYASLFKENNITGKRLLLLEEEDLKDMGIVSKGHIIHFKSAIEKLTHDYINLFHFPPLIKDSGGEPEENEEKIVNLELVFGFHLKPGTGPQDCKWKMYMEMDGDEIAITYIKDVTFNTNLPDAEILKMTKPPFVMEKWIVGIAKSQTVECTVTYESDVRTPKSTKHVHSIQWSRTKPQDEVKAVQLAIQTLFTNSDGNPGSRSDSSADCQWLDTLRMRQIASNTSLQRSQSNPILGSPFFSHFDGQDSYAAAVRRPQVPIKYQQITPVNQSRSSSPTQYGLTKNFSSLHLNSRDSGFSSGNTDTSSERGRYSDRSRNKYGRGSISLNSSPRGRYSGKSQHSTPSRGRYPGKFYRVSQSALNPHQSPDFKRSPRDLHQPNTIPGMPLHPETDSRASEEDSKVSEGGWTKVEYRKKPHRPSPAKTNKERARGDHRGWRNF", "how_it_was_run": "as §1"}}, "data": [{"molecule": "Cc1ccc(C2=Nc3cccnc3S(=O)(=O)c3ccccc32)cc1", "note": "[TBPT, 6-(p-tolyl)benzo[f] pyrido[2,3-b][1,4] thiazepine 11,11-dioxide]", "values": [{"measurement": "remaining binding at 5 µM", "setting": "[1]; 5 μM", "value": 98, "unit": "%"}, {"measurement": "remaining binding at 10 µM", "setting": "[1]; 10 μM", "value": 100, "unit": "%"}, {"measurement": "remaining binding at 5 µM", "setting": "[2]; 5 μM", "value": 76, "unit": "%"}, {"measurement": "remaining binding at 10 µM", "setting": "[2]; 10 μM", "value": 100, "unit": "%"}, {"measurement": "remaining binding at 5 µM", "setting": "[3]; 5 μM", "value": 95, "unit": "%"}, {"measurement": "remaining binding at 10 µM", "setting": "[3]; 10 μM", "value": 100, "unit": "%"}, {"measurement": "remaining binding at 5 µM", "setting": "[4]; 5 μM", "value": 100, "unit": "%"}, {"measurement": "remaining binding at 10 µM", "setting": "[4]; 10 μM", "value": 100, "unit": "%"}, {"measurement": "remaining binding at 5 µM", "setting": "[5]; 5 μM", "value": 100, "unit": "%"}, {"measurement": "remaining binding at 10 µM", "setting": "[5]; 10 μM", "value": 91, "unit": "%"}, {"measurement": "remaining binding at 5 µM", "setting": "[6]; 5 μM", "value": 89, "unit": "%"}, {"measurement": "remaining binding at 10 µM", "setting": "[6]; 10 μM", "value": 100, "unit": "%"}, {"measurement": "remaining binding at 5 µM", "setting": "[7]; 5 μM", "value": 100, "unit": "%"}, {"measurement": "remaining binding at 10 µM", "setting": "[7]; 10 μM", "value": 79, "unit": "%"}, {"measurement": "remaining binding at 5 µM", "setting": "[8]; 5 μM", "value": 80, "unit": "%"}, {"measurement": "remaining binding at 10 µM", "setting": "[8]; 10 μM", "value": 100, "unit": "%"}, {"measurement": "remaining binding at 5 µM", "setting": "[9]; 5 μM", "value": 98, "unit": "%"}, {"measurement": "remaining binding at 10 µM", "setting": "[9]; 10 μM", "value": 84, "unit": "%"}, {"measurement": "remaining binding at 5 µM", "setting": "[10]; 5 μM", "value": 100, "unit": "%"}, {"measurement": "remaining binding at 10 µM", "setting": "[10]; 10 μM", "value": 88, "unit": "%"}, {"measurement": "remaining binding at 5 µM", "setting": "[11]; 5 μM", "value": 95, "unit": "%"}, {"measurement": "remaining binding at 10 µM", "setting": "[11]; 10 μM", "value": 89, "unit": "%"}, {"measurement": "remaining binding at 5 µM", "setting": "[12]; 5 μM", "value": 100, "unit": "%"}, {"measurement": "remaining binding at 10 µM", "setting": "[12]; 10 μM", "value": 85, "unit": "%"}, {"measurement": "remaining binding at 5 µM", "setting": "[13]; 5 μM", "value": 100, "unit": "%"}, {"measurement": "remaining binding at 10 µM", "setting": "[13]; 10 μM", "value": 100, "unit": "%"}, {"measurement": "remaining binding at 5 µM", "setting": "[14]; 5 μM", "value": 81, "unit": "%"}, {"measurement": "remaining binding at 10 µM", "setting": "[14]; 10 μM", "value": 100, "unit": "%"}, {"measurement": "remaining binding at 5 µM", "setting": "[15]; 5 μM", "value": 100, "unit": "%"}, {"measurement": "remaining binding at 10 µM", "setting": "[15]; 10 μM", "value": 100, "unit": "%"}, {"measurement": "remaining binding at 5 µM", "setting": "[16]; 5 μM", "value": 100, "unit": "%"}, {"measurement": "remaining binding at 10 µM", "setting": "[16]; 10 μM", "value": 100, "unit": "%"}, {"measurement": "remaining binding at 5 µM", "setting": "[17]; 5 μM", "value": 90, "unit": "%"}, {"measurement": "remaining binding at 10 µM", "setting": "[17]; 10 μM", "value": 100, "unit": "%"}, {"measurement": "remaining binding at 5 µM", "setting": "[18]; 5 μM", "value": 96, "unit": "%"}, {"measurement": "remaining binding at 10 µM", "setting": "[18]; 10 μM", "value": 95, "unit": "%"}, {"measurement": "remaining binding at 5 µM", "setting": "[19]; 5 μM", "value": 100, "unit": "%"}, {"measurement": "remaining binding at 10 µM", "setting": "[19]; 10 μM", "value": 100, "unit": "%"}, {"measurement": "remaining binding at 5 µM", "setting": "[20]; 5 μM", "value": 90, "unit": "%"}, {"measurement": "remaining binding at 10 µM", "setting": "[20]; 10 μM", "value": 100, "unit": "%"}, {"measurement": "remaining binding at 5 µM", "setting": "[21]; 5 μM", "value": 95, "unit": "%"}, {"measurement": "remaining binding at 10 µM", "setting": "[21]; 10 μM", "value": 75, "unit": "%"}, {"measurement": "remaining binding at 5 µM", "setting": "[22]; 5 μM", "value": 100, "unit": "%"}, {"measurement": "remaining binding at 10 µM", "setting": "[22]; 10 μM", "value": 100, "unit": "%"}, {"measurement": "remaining binding at 5 µM", "setting": "[23]; 5 μM", "value": 84, "unit": "%"}, {"measurement": "remaining binding at 10 µM", "setting": "[23]; 10 μM", "value": 96, "unit": "%"}, {"measurement": "remaining binding at 5 µM", "setting": "[24]; 5 μM", "value": 100, "unit": "%"}, {"measurement": "remaining binding at 10 µM", "setting": "[24]; 10 μM", "value": 98, "unit": "%"}, {"measurement": "remaining binding at 5 µM", "setting": "[25]; 5 μM", "value": 100, "unit": "%"}, {"measurement": "remaining binding at 10 µM", "setting": "[25]; 10 μM", "value": 88, "unit": "%"}, {"measurement": "remaining binding at 5 µM", "setting": "[26]; 5 μM", "value": 92, "unit": "%"}, {"measurement": "remaining binding at 10 µM", "setting": "[26]; 10 μM", "value": 92, "unit": "%"}, {"measurement": "remaining binding at 5 µM", "setting": "[27]; 5 μM", "value": 100, "unit": "%"}, {"measurement": "remaining binding at 10 µM", "setting": "[27]; 10 μM", "value": 100, "unit": "%"}, {"measurement": "remaining binding at 5 µM", "setting": "[28]; 5 μM", "value": 96, "unit": "%"}, {"measurement": "remaining binding at 10 µM", "setting": "[28]; 10 μM", "value": 78, "unit": "%"}, {"measurement": "remaining binding at 5 µM", "setting": "[29]; 5 μM", "value": 100, "unit": "%"}, {"measurement": "remaining binding at 10 µM", "setting": "[29]; 10 μM", "value": 100, "unit": "%"}, {"measurement": "remaining binding at 5 µM", "setting": "[30]; 5 μM", "value": 94, "unit": "%"}, {"measurement": "remaining binding at 10 µM", "setting": "[30]; 10 μM", "value": 83, "unit": "%"}]}]}
